Test results reported in patent US20100267823A1, “AURONES AS SELECTIVE PDE INHIBITORS AND THEIR USE IN NEUROLOGICAL CONDITIONS AND DISORDERS” (priority 2009, published 2010).

Key:
Format in all cases: biochemical
[1] = target: T1, PDE3 protein isolated from human platelets (Homo sapiens, UniProt Q14432); test: PDE 3 inhibition assay ([3H]cAMP hydrolysis); settings: final concentration of the test compound 10 μM; read-out: inhibition compared with the control (PDE 3)
T1 construct: PDE3 protein isolated from human platelets; tissue MDS Pharma Services 152000; host or cells: human platelets
Procedure: PDE3 protein isolated from human platelets (MDS Pharma Services: cat. No. 152000) was pre-incubated with the respective test compound dissolved in 1% DMSO aqueous solution for 15 minutes at 25° C. in an incubation buffer (50 mM Tris-HCl, pH 7.5, […], […]). After pre-incubation phase 1.01 μM [^3H]cAMP+cAMP where added as substrate to the buffer and the mixture was incubated for additional 20 minutes (25° C.). At the end of incubation phase [^3H] Adenosine concentrations were quantified. Stimulating or inhibiting effects equal or larger than 50% in comparison to vehicle (1% DMSO) control were considered as significant effects.
(§1) At the end of incubation phase [^3H] Adenosine concentrations were quantified. The final concentration of the test compound is 10 μM.

[2] = system: PDE1 protein isolated from bovine brain; test: PDE 1 inhibition assay ([3H]cAMP hydrolysis); settings: final concentration of the test compound 10 μM
Procedure: (§2) PDE1 protein isolated from bovine brain (MDS Pharma Services: cat. No. 146000) was pre-incubated with the respective test compound dissolved in 1% DMSO aqueous solution for 15 minutes at 25° C. in an incubation buffer (50 mM Tris-HCl, pH 7.5, 5 mM MgCl2, 2 mM CaCl2, 100 U/ml Calmodulin). After pre-incubation phase 1.01 μM [^3H]cAMP+cAMP where added as substrate to the buffer and the mixture was incubated for additional 20 minutes (25° C.).
as §1

[3] = system: PDE4 protein from human leukemic monocyte lymphoma cell line (U937); test: PDE 4 inhibition assay ([3H]cAMP hydrolysis); settings: final concentration of the test compound 10 μM
Procedure: as §2, with “PDE4” for “PDE1”, “protein” for “protein isolated”, “human leukemic monocyte lymphoma cell line (U937, for example abcam ab3959)” for “bovine brain”, “152000)” for “146000)”, “C.). At the end of incubation phase [^3H] Adenosine concentrations were quantified.” for “C.).”
as §1

T1 sequence (Q14432 whole entry): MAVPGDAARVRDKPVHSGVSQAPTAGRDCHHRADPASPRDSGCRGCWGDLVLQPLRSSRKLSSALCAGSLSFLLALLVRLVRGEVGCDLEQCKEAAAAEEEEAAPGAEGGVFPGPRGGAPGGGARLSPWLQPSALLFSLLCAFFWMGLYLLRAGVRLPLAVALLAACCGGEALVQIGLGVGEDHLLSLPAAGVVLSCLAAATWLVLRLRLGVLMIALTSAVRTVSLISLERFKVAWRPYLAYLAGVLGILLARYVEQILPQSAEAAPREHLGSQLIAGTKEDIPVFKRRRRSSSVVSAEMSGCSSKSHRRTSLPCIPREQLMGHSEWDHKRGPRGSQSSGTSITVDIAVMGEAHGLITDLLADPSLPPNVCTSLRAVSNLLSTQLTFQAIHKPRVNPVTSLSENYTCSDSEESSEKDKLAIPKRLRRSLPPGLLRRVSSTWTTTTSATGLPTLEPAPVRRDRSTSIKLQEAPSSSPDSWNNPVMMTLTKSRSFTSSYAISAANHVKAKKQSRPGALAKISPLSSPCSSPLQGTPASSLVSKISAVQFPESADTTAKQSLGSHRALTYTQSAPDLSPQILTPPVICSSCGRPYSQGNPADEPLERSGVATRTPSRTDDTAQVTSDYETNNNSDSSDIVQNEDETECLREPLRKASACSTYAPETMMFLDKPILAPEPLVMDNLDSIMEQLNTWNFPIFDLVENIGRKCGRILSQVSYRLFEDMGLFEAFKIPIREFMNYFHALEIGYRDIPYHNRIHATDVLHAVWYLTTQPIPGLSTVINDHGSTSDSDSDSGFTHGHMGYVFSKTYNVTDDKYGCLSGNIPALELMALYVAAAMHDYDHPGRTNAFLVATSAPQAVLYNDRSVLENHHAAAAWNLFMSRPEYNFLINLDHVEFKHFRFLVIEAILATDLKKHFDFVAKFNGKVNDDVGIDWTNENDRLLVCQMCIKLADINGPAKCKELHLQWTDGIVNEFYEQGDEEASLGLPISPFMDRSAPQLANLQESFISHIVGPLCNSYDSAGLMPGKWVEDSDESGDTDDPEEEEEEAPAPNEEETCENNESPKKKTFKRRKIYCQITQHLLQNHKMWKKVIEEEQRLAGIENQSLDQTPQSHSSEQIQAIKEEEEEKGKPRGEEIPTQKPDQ

| SMILES | inhibition at 10 µM [1] [%] | inhibition compared with the control (PDE 1) [2] [%] | inhibition compared with the control (PDE 4) [3] [%] |
| --- | --- | --- | --- |
| O=C1/C(=C/c2ccc(O)cc2O)Oc2cc(O)cc(O)c21 [SM 29 (3), 2′,4,4′,6-Tetrahydroxy-aurone] | 39 | 52 | 29 |
| O=C1/C(=C/c2ccc(O)cc2)Oc2cc(O)cc(O)c21 [SM 30(3), 4,4′,6-Trihydroxy-aurone] | 74 | 52 | 41 |
